Laboratory results: patent US10308649B2, “Compounds and methods to suppress autoimmune response” (Oregon State University, priority 2014, dated 2019)

Experiments:
NOD mice = test: Flow cytometry of leukocyte composition of pancreas, PLN and spleen of NOD mice; assay type: in vivo, mouse
Procedure: The leukocyte composition of the pancreas and draining lymph nodes was analyzed at 12, 15, and 20 weeks of age using flow cytometry. Mice were sacrificed at 12, 15, and 20 weeks of age, draining lymph nodes and pancreata were excised, and single cell suspensions were prepared for analysis with flow cytometry. Fc receptors were blocked with rat immunoglobulin G (IgG) acquired from Jackson ImmunoResearch. The cells were stained with the following antibodies: CD4 (RM4, eBioscience), CD8 (53-6.7, eBioscience), CD19 (1D3, eBioscience), CD45 (30-F11, BD Biosciences), Foxp3 (FJK-16s, eBioscience), Nrp1 (3DS304M, eBioscience), CD25 (PC61.5, eBioscience), RORγt (AFKJS-9, eBioscience). For intracellular staining, cells were fixed and permeabilized using a Foxp3 Fixation/Permeabilization buffer acquired from eBioscience (San Diego, Calif.). Data were acquired using a FC-500 flow cytometer (BECKMAN COULTER) and compensated and analyzed using FLOWJO software. Fluorescence minus one (FMO) controls were used for setting gates for analysis.
FIGS. 3a-3f illustrate results comparing the leukocyte composition of the vehicle treated NOD mice to the ARHL1 treated NOD mice from FIG. 2b. The leukocyte composition of the vehicle treated NOD mice to the ARHL1 treated NOD mice was analyzed at 12 weeks of age. Student's t-test was used for analysis. Sample size of n=5-9 mice per group was used. A single asterisk (*) signifies p≤0.05; a double asterisk (**) signifies p≤0.01; a triple asterisk (***) signifies p≤0.001.
FIGS. 4a-4t illustrate results comparing leukocyte composition of draining lymph nodes in vehicle treated, AHRL1 treated, and TCDD treated NOD mice at 12, 15, and 20 weeks of age. Seven-week-old NOD mice were treated with vehicle, AHRL1, or TCDD as described with reference to FIG. 2b. At 12 weeks of age, 15 weeks of age, and 20 weeks of age, the draining lymph nodes were excised from the mice and stained with CD4 antibodies and Foxp3 antibodies. The results were analyzed by flow cytometry and plotted as average +/−standard deviation (s.d.). A sample size of n=5-9 mice per group was used. A single asterisk (*) signifies p≤0.05.

donor CD4+ T cells = test: Acute graft versus host model: Treg phenotype of alloactivated donor CD4+ T cells; assay type: in vivo, mouse; details: B6D2F1 hosts, day 2
Procedure: FIGS. 14a-14i show AHRL1 induces an AhR-dependent Treg phenotype by a mechanism that is mediated by the AhR in donor CD4+ T cells. The AhR-induced Tregs were identified as the CD4+CD25+CTLA-4+CD62L^low population of T cells. To determine if AHRL1 induced changes in donor CD4+ T cells, AHRL1 was compared with TCDD and the vehicle. On day 0, B6D2F1 host mice in groups of 5 were injected with CFSE-labeled C57BL/6 (H-2^b/b) T cells and given 15 mg/kg of AHRL1, 15 μg/kg of TCDD, or vehicle by i.p. injection. At 24 hours, an additional dose of 7 mg/kg of AHRL1 or vehicle was given. Mice that were treated with TCDD at the time of donor cell transfer were used as positive controls. Splenocytes were isolated on day 2 for phenotypic analysis of the alloresponsive (CFSE-diluted) donor CD4+ T cells. Splenocytes were harvested from the host mice and the CD4+ T cells were identified by flow cytometry.
On day 0, B6D2F1 host mice in groups of 5 were injected with donor T cells obtained from AhR^+/+ or AhR-deficient (AhR^−/−) C57BL/6 mice. Host mice were treated with 2 mg/kg of AHRL1 or vehicle immediately following donor cell transfer and again at 24 hours. […] Thus, the AhR in the CD4+ T cell is the primary target driving the AhR-Treg phenotype.
On day 0, B6D2F1 host mice in groups of 3-5 were injected with C57BL/6 T cells. Mice were immediately treated with 0 mg/kg, 0.4 mg/kg, 2 mg/kg, or 10 mg/kg of AHRL1 and again on day 1. On day 2, expression of markers associated with the AhR-Treg phenotype increased as the dose of AHRL1 increased. Further, dosing generally correlated with degree of activation of AhR as reflected by CYP1A1, CYP1B1, and AHRR expression in lymph nodes from the same mice. The asterisk (*) indicates a p-value of 0.05 relative to vehicle treatment.
FIGS. 16c and 16d show expression of phenotypic markers, CD25+ICOS+CD62L^low and CD25+CTLA-4+, associated with AhR-Tregs in mice treated with AHRL1. Host mice were treated with 10 mg/kg of AHRL1, 11-Cl-BBQ analog, or vehicle on day 0 and day 1 following donor cell transfer. On day 2, the alloactivated CD4+ donor T cells were identified based on CFSE dilution. The percentage of donor cells in each group expressing the Treg markers were derived from flow histograms. The data represents mean±SEM of 5 mice per treatment. […] Analog 1 is statistically different from AHRL1 and analog 4 (p-value=0.05). […], analog 1, and analog 4 are shown to be AhR ligands that are capable of inducing Tregs in vivo. Accordingly, analogs 1 and 4 are expected to have a similar therapeutic effect in a subject as AHRL1 by suppressing an autoimmune response. Additionally, analog 6, analog 7, and other analogs of 11-Cl-BBQ, that are found to be active AhR ligands using the disclosed screening method, are expected to induce Tregs and suppress CTL to provide treatment and/or prevention of immune-mediated diseases.

For `Clc1cc2c(cc1Cl)Oc1cc(Cl)c(Cl)cc1O2` [TCDD, 2,3,7,8-tetrachlorodibenzo-p-dioxin], the “percentage of CD4+Foxp3- cells that were Nrp1+” value (NOD mice; NOD.Foxp3WT mice, 20 weeks of age) was “decrease”, the “percentage of Foxp3+ cells gated on CD4+ cells” value (“percentage of Foxp3+ cells gated” below) (NOD mice; PLN, 12 weeks of age) was “higher percentage” and the “percentage of Foxp3+ cells gated” value (NOD mice; PLN, 15 weeks of age) was “higher percentage”. The “percentage of Foxp3+ cells gated” value (NOD mice; PLN, 20 weeks of age) was “higher percentage”, the “percentage of Foxp3+ cells gated” value (NOD mice; spleen, 12 weeks of age, vs vehicle) was “higher percentage” and the “percentage of Foxp3+ cells gated” value (NOD mice; spleen, 15 weeks of age, vs vehicle) was “higher percentage”. For the same molecule, the “percentage of Foxp3+ cells gated” value (NOD mice; spleen, 20 weeks of age, vs vehicle) was “higher percentage”, the “total number of alloactivated CD4+CD25+ T cells co-expressing CTLA-4+, ICOS, low CD62L” value (donor CD4+ T cells) was “increased” and the “expression of ICOS on alloactivated donor CD4+ T cells” value (donor CD4+ T cells; AHRL1 15 mg/kg then 7 mg/kg, TCDD 15 μg/kg i.p.) was “significantly increased”.
